Holding throughout (assay type): cell-based
For one assay, the system named is Proteus mir. 8223. Kind of assay: MIC, agar dilution test, Proteus mir. 8223. The conditions noted are these: Proteus mirabilis. The source says:
(§1) | Denley multipoint inoculator
Background: In agar dilution, organisms are placed on agar that contains the substance at set levels.

The test system of assay [1] is Streptococc. faecal. 9790. Briefly: MIC, agar dilution test, Streptococc. faecal. 9790.
Description: as §1

The subject of a further assay is Pseudomonas W. Kind of assay: MIC, agar dilution test, Pseudomonas W.
Description: as §1

A further assay relates to Proteus morg. 932. Kind of assay: MIC, agar dilution test, Proteus morg. 932. The settings on record: Morganella morganii, Isosensitest medium.
Description: as §1

[2] abbreviates: Proteus mir. 8223, agar dilution, Isosensitest medium, read-out: MIC.
Setting [3] is: Streptococc. faecal. 9790, agar dilution, Isosensitest medium, read-out: MIC.
Setting [4] is: Pseudomonas W., agar dilution, Isosensitest medium, read-out: MIC.

≈ marks a conversion by molar mass, not a printed value. Read-outs that look alike come from different tables or passages of the source.

MIC data for 15 compounds are collected here from US4556658A, “7-Amino-1-cyclopropyl-6,8-difluoro-1,4-di hydro-4-oxo-quinoline-3-carboxylic acids and antibacterial agents containing these compounds” (Bayer Aktiengesellschaft, priority 1983, dated 1985).

As usually defined, the MIC is the least concentration at which growth counts as inhibited.

Consider `CC1CN(c2c(F)cc3c(=O)c(C(=O)O)cn(C4CC4)c3c2F)CCN1` (centres unmarked) [Example 3], for which the MIC in the assay with Proteus mir. 8223 (setting [2]) was found to be 4000 µg/mL (≈ 11000 µM); in assay [1] (setting [3]), 500 µg/mL (≈ 1380 µM); with Pseudomonas W. (setting [4]) it was 500 µg/mL (≈ 1380 µM).

With `O=C(O)c1cn(C2CC2)c2c(F)c(N3CCN(CC4CC4)CC3)c(F)cc2c1=O` [Example 15, 1-cyclopropyl-7-(4-cyclopropylmethylpiperazin-1-yl)-6,8-difluoro-1,4-dihydro-4-oxoquinoline-3-carboxylic acid], the MIC came to 8000 µg/mL (≈ 19800 µM) with Proteus mir. 8223 (setting [2]), 2000 µg/mL (≈ 4960 µM) in assay [1] (setting [3]), 8000 µg/mL (≈ 19800 µM) in the assay on Pseudomonas W. (setting [4]) and 60 µg/mL (≈ 149 µM) with Proteus morg. 932.

Regarding `O=C(O)c1cn(C2CC2)c2c(F)c(N3CCCC3)c(F)cc2c1=O` [Example 11], the MIC in the assay with Proteus mir. 8223 (setting [2]) amounted to 8000 µg/mL (≈ 23900 µM); in assay [1] (setting [3]), 500 µg/mL (≈ 1500 µM); in the assay on Pseudomonas W. (setting [4]) it was 4000 µg/mL (≈ 12000 µM); in the assay with Proteus morg. 932 it was 500 µg/mL (≈ 1500 µM).

On to `CCN1CCN(c2c(F)cc3c(=O)c(C(=O)O)cn(C4CC4)c3c2F)CC1` [Example 13], for which the MIC stood at 4000 µg/mL (≈ 10600 µM) with Proteus mir. 8223 (setting [2]), 1000 µg/mL (≈ 2650 µM) in assay [1] (setting [3]) and 500 µg/mL (≈ 1320 µM) in the assay with Pseudomonas W. (setting [4]).

`CN1CCN(c2c(F)cc3c(=O)c(C(=O)O)cn(C4CC4)c3c2F)CC1.Cl` [Example 2, 1-cyclopropyl-6,8-difluoro-7-(4-methylpiperazin-1-yl)-1,4-dihydro-4-oxoquinoline-3-carboxylic acid hydrochloride]: the MIC was 2000 µg/mL with Proteus mir. 8223 (setting [2]) and 500 µg/mL in assay [1] (setting [3]).

For the compound `CCN1CCN(c2c(F)cc3c(=O)c(C(=O)O)cn(C4CC4)c3c2F)CC1C` (centres unmarked) [Example 14], the MIC in the assay with Proteus mir. 8223 (setting [2]) came to 16000 µg/mL (≈ 40900 µM); in assay [1] (setting [3]), 1000 µg/mL (≈ 2550 µM); with Pseudomonas W. (setting [4]), 4000 µg/mL (≈ 10200 µM); in the assay with Proteus morg. 932, 30 µg/mL (≈ 76.6 µM).

With `CC1CN(c2c(F)cc3c(=O)c(C(=O)O)cn(C4CC4)c3c2F)CC(C)O1` (centres unmarked) [Example 10], the MIC with Proteus mir. 8223 (setting [2]) was determined as 8000 µg/mL (≈ 21100 µM); in assay [1] (setting [3]), 250 µg/mL (≈ 661 µM); with Pseudomonas W. (setting [4]) it was 4000 µg/mL (≈ 10600 µM); with Proteus morg. 932 it was 1000 µg/mL (≈ 2640 µM).

`CCC1CN(c2c(F)cc3c(=O)c(C(=O)O)cn(C4CC4)c3c2F)CCN1` (centres unmarked) [Example 4]: the MIC was 8000 µg/mL (≈ 21200 µM) with Proteus mir. 8223 (setting [2]), 500 µg/mL (≈ 1320 µM) in assay [1] (setting [3]) and 1000 µg/mL (≈ 2650 µM) in the assay on Pseudomonas W. (setting [4]).

Consider `O=C(O)c1cn(C2CC2)c2c(F)c(N3CCC(O)CC3)c(F)cc2c1=O` [Example 8], for which the MIC amounted to 4000 µg/mL (≈ 11000 µM) in the assay on Proteus mir. 8223 (setting [2]), 1000 µg/mL (≈ 2740 µM) in the assay with Pseudomonas W. (setting [4]) and 30 µg/mL (≈ 82.3 µM) in the assay with Proteus morg. 932.

On to `CC(=O)CCN1CCN(c2c(F)cc3c(=O)c(C(=O)O)cn(C4CC4)c3c2F)CC1` [Example 28, 1-cyclopropyl-6,8-difluoro-1,4-dihydro-4-oxo-7-[4-(3-oxobutyl)-piperazin-1-yl]-quinoline-3-carboxylic acid], for which the MIC in the assay with Proteus mir. 8223 (setting [2]) was 4000 µg/mL (≈ 9540 µM); in assay [1] (setting [3]), 500 µg/mL (≈ 1190 µM); with Pseudomonas W. (setting [4]) it was 250 µg/mL (≈ 596 µM).

Take `CC1CN(c2c(F)cc3c(=O)c(C(=O)O)cn(C4CC4)c3c2F)CC(C)N1` (centres unmarked) [Example 5]: the MIC with Proteus mir. 8223 (setting [2]) came out at 4000 µg/mL (≈ 10600 µM); in assay [1] (setting [3]), 500 µg/mL (≈ 1320 µM); in the assay with Pseudomonas W. (setting [4]), 1000 µg/mL (≈ 2650 µM).

With `CC(C)N1CCN(c2c(F)cc3c(=O)c(C(=O)O)cn(C4CC4)c3c2F)CC1.I` [Example 12, 1-cyclopropyl-6,8-difluoro-7-(4-isopropylpiperazin-1-yl)-1,4-dihydro-4-oxoquinoline-3-carboxylic acid hydriodide], the MIC in the assay on Proteus mir. 8223 (setting [2]) stood at 16000 µg/mL; in assay [1] (setting [3]), 2000 µg/mL; in the assay on Pseudomonas W. (setting [4]), 8000 µg/mL; against Proteus morg. 932, 60 µg/mL.

On to `Cl.O=C(O)c1cn(C2CC2)c2c(F)c(N3CCNCC3)c(F)cc2c1=O` [Example 1, 1-cyclopropyl-6,8-difluoro-7-(piperazin-1-yl)-1,4-dihydro-4-oxoquinoline-3-carboxylic acid hydrochloride], for which the MIC against Proteus mir. 8223 (MIR.8223) was determined as 2000 µg/mL; in assay [1], 250 µg/mL; against Pseudomonas W. (Pseudomonas) it was 60 µg/mL.

Turning to `O=C(O)c1cn(C2CC2)c2c(F)c(N3CCOCC3)c(F)cc2c1=O` [Example 7, 1-cyclopropyl-6,8-difluoro-7-(morpholin-4-yl)-1,4-dihydro-4-oxoquinoline-3-carboxylic acid], the MIC in the assay on Proteus mir. 8223 (setting [2]) worked out at 8000 µg/mL (≈ 22800 µM); in assay [1] (setting [3]), 500 µg/mL (≈ 1430 µM); in the assay on Pseudomonas W. (setting [4]), 1000 µg/mL (≈ 2850 µM); in the assay on Proteus morg. 932, 60 µg/mL (≈ 171 µM).

As for `O=C(O)c1cn(C2CC2)c2c(F)c(N3CCN(CCO)CC3)c(F)cc2c1=O` [Example 6], the figures for the MIC (in the assay with Proteus mir. 8223 (setting [2]); in assay [1] (setting [3]); in the assay with Pseudomonas W. (setting [4])) were 4000 µg/mL (≈ 10200 µM), 500 µg/mL (≈ 1270 µM) and 1000 µg/mL (≈ 2540 µM), respectively.
